Laboratory results from ChEMBL document CHEMBL3593184, “Synthesis of (2-amino)ethyl derivatives of quercetin 3-O-methyl ether and their antioxidant and neuroprotective effects” (Bioorg Med Chem, 2015).

Assays:
Rattus norvegicus [1] = assay: (§1) Neuroprotective activity against middle cerebral artery occlusion-induced focal cerebral ischemia in Sprague-Dawley rat assessed as reduction in absolute infarct volume in striatum at 10 mg/kg, iv administered 30 mins after MCA occlusion measured after 2 hrs of reperfusion by TTC staining (reference value: 41.9 +/- 29 mm'3); type: functional
Rattus norvegicus [2] = assay: as §1, with “corrected total” for “absolute”, “volume” for “volume in striatum”, “163.2” for “41.9”, “9.4” for “29”; type: functional
[3] = Antioxidant activity assessed as superoxide anion radical scavenging activity after 20 mins by xanthine/xanthine oxidase method; type: physicochemical
Rattus norvegicus [4] = assay: as §1, with “cortex” for “striatum”, “195.6” for “41.9”, “11.5” for “29”; type: functional
Rattus norvegicus [5] = assay: as §1, with “infarct total” for “infarct”, “volume” for “volume in striatum”, “237.4” for “41.9”, “13.1” for “29”; type: functional
[6] = Antioxidant activity assessed as DPPH radical scavenging activity after 30 min; type: physicochemical; details: DPPH radical solution
Liver microsome = assay: Antioxidant activity in rat liver microsomes assessed as reduction in iron-ascorbic acid-induced lipid […] activity after 30 mins by TBARS assay; type: functional; details: 0.5 h
[7] = Aqueous solubility of the compound at room temperature by HPLC; type: physicochemical; details: water
Rattus norvegicus [8] = assay: Neuroprotective activity against middle cerebral artery occlusion-induced focal cerebral ischemia in Sprague-Dawley rat assessed as reduction in edema at 10 mg/kg, iv administered 30 mins after MCA occlusion measured after 2 hrs of reperfusion by TTC staining (reference value: 13 +/- 0.7 %); type: functional; parameters: scale not given: the % may be the effect or the level left

For COc1c(-c2ccc(O)c(O)c2)oc2cc(OCCN3CCCCC3)cc(O)c2c1=O.Cl, the Activity (Rattus norvegicus [1]) was 30.1 mm3, the Activity (Rattus norvegicus [2]) was 92.1 mm3 and the IC50 [3] was 8.15 µM. For the same compound, the Activity (Rattus norvegicus [4]) was 93.6 mm3, the Activity (Rattus norvegicus [5]) was 128.9 mm3 and the IC50 [6] was 20.7 µM. For the same compound, the IC50 (Liver microsome) was 19.2 µM, the solubility [7] was greater than 50 mM and the Activity (Rattus norvegicus [8]) was 6.7%.
Compound COc1c(-c2ccc(O)c(O)c2)oc2cc(OCCN3CCCC3)cc(O)c2c1=O has an IC50 [3] of 11.4 µM, an IC50 [6] of 18.9 µM and an IC50 (Liver microsome) of 21.8 µM.
Compound COc1c(-c2ccc(O)c(O)c2)oc2cc(OCCN3CCOCC3)cc(O)c2c1=O has an IC50 [3] of 7.41 µM, an IC50 [6] of 47.2 µM and an IC50 (Liver microsome) of 16.2 µM.
With CCN(CC)CCOc1cc(O)c2c(=O)c(OC)c(-c3ccc(O)c(O)c3)oc2c1 the IC50 [3] was 8.14 µM, the IC50 [6] was 27.4 µM and the IC50 (Liver microsome) was 15.8 µM.
With COc1c(-c2cc(O)c(O)c(O)c2)oc2cc(OCCN3CCCCC3)cc(O)c2c1=O the IC50 [3] was greater than 100 µM, the IC50 [6] was 26.3 µM and the IC50 (Liver microsome) was 10.5 µM.
Compound COc1c(-c2cc(O)c(O)c(O)c2)oc2cc(OCCN3CCCC3)cc(O)c2c1=O has an IC50 [3] greater than 100 µM, an IC50 [6] of 16.8 µM and an IC50 (Liver microsome) of 10.1 µM.
Work on COc1c(-c2cc(O)c(O)c(O)c2)oc2cc(OCCN3CCOCC3)cc(O)c2c1=O yielded an IC50 [3] greater than 100 µM, an IC50 [6] of 26 µM and an IC50 (Liver microsome) of 10.2 µM.
Compound CCN(CC)CCOc1cc(O)c2c(=O)c(OC)c(-c3cc(O)c(O)c(O)c3)oc2c1.Cl has an Activity (Rattus norvegicus [1]) of 39.3 mm3, an Activity (Rattus norvegicus [2]) of 108.9 mm3 and an IC50 [3] greater than 100 µM. The Activity (Rattus norvegicus [4]) was 123.4 mm3, the Activity (Rattus norvegicus [5]) was 164 mm3 and the IC50 [6] was 22.9 µM. It also gave an IC50 (Liver microsome) of 11.5 µM, a solubility [7] greater than 50 mM and an Activity (Rattus norvegicus [8]) of 9.4%.
With COc1c(-c2ccc(O)c(O)c2)oc2cc(O)cc(OCCN3CCCCC3)c2c1=O the IC50 [3] was 5.8 µM, the IC50 [6] was greater than 100 µM and the IC50 (Liver microsome) was 25.1 µM.
Compound COc1c(-c2ccc(O)c(O)c2)oc2cc(O)cc(OCCN3CCCC3)c2c1=O has an IC50 [3] of 4.58 µM, an IC50 [6] of 84 µM and an IC50 (Liver microsome) of 23.3 µM.
With COc1c(-c2ccc(O)c(O)c2)oc2cc(O)cc(OCCN3CCOCC3)c2c1=O the IC50 [3] was 11.2 µM, the IC50 [6] was greater than 100 µM and the IC50 (Liver microsome) was 37.4 µM.
For CCN(CC)CCOc1cc(O)cc2oc(-c3ccc(O)c(O)c3)c(OC)c(=O)c12, the IC50 [3] was 6.53 µM, the IC50 [6] was greater than 100 µM and the IC50 (Liver microsome) was 23.3 µM.
With COc1c(-c2cc(O)c(O)c(O)c2)oc2cc(O)cc(OCCN3CCCCC3)c2c1=O the IC50 [3] was greater than 100 µM, the IC50 [6] was 32.4 µM and the IC50 (Liver microsome) was 11.9 µM.
With COc1c(-c2cc(O)c(O)c(O)c2)oc2cc(O)cc(OCCN3CCCC3)c2c1=O the IC50 [3] was greater than 100 µM, the IC50 [6] was 27 µM and the IC50 (Liver microsome) was 10.9 µM.
Compound COc1c(-c2cc(O)c(O)c(O)c2)oc2cc(O)cc(OCCN3CCOCC3)c2c1=O has an IC50 [3] greater than 100 µM, an IC50 [6] of 23.2 µM and an IC50 (Liver microsome) of 12 µM.
With CCN(CC)CCOc1cc(O)cc2oc(-c3cc(O)c(O)c(O)c3)c(OC)c(=O)c12 the IC50 [3] was greater than 100 µM, the IC50 [6] was 22.1 µM and the IC50 (Liver microsome) was 11.2 µM.
COc1c(-c2ccc(O)c(O)c2)oc2cc(O)cc(O)c2c1=O [3-O-METHYLQUERCETIN] gave an Activity (Rattus norvegicus [1]) of 27.2 mm3, an Activity (Rattus norvegicus [2]) of 78.8 mm3 and an IC50 [3] of 17.4 µM. It also gave an Activity (Rattus norvegicus [4]) of 79.9 mm3, an Activity (Rattus norvegicus [5]) of 108.8 mm3 and an IC50 [6] of 14.2 µM. For the same compound, the IC50 (Liver microsome) was 19 µM, the solubility [7] was greater than 50 mM and the Activity (Rattus norvegicus [8]) was 5.5%.
Work on O=C1O[C@H]([C@@H](O)CO)C(O)=C1O [ASCORBIC ACID] yielded an IC50 [3] greater than 50 µM and an IC50 [6] of 41 µM.
